Where two headings read alike, the source gives them in different places.

Experimental findings from PMC9180926, “Discovery of Novel 3-Hydroxyquinazoline-2,4(1H,3H)-Dione Derivatives: A Series of Metal Ion Chelators with Potent Anti-HCV Activities” (International Journal of Molecular Sciences, 2022) are described below.

Series [1] relates to HCV 1b replicon cells (Huh-7.5.1). The experiment in a line: Anti-HCV assay, HCV 1b replicon cells with luciferase reporter. It counts as cell-based, hepatitis C virus (HCV) subtype 1b. The note with it: for inhibition at 10 µM / inhibition at 25 µM: Huh-7.5.1, 72 h; for inhibition at 10 µM: read-out: HCV Inhibition 10 μM; for inhibition at 25 µM: read-out: HCV Inhibition 25 μM; for EC50: mean ± SD; for HCV inhibition at the tested concentrations: at the tested concentrations (25 μM and 10 μM). The procedure: (§1) The HCV replicons were validated as convenient and effective models for testing the anti-HCV activity. Since HCV subtype 1b is one of the major subtypes worldwide, especially in China, the replicon model from the Huh-7.5.1 cell line integrating HCV 1b genome encoding the nonstructural proteins was chosen to evaluate the anti-HCV activities of 3-hydroxyquinazoline-2,4(1H,3H)-diones. The inhibitory rates of the compounds on HCV replicon cells were determined at concentrations of 25 μM and 10 μM, respectively. The broad-spectrum antiviral drug ribavirin (RBV) and the NS5B nucleoside inhibitor 2′-C-methyladenosine (2CMA) were selected as positive controls. The cytotoxicity of these compounds on replicon cells was determined using the cell counting kit-8 (CCK-8) assay.
HCV 1b replicon cells (Huh-7.5.1) containing luciferase reporter gene were kindly provided by Prof. Zhenghong Yuan (Key Laboratory of Medical Molecular Virology, Fudan University, Shanghai, China). The replicon cells were plated at 1.5 × 10^4 cells per well in a 48-well plate (Corning Inc., New York, NY, USA) at 5% CO2/37 °C. The culture medium was Dulbecco’s Modified Eagle Medium (DMEM, pH 7.3, Shanghai XP Biomed Ltd., Shanghai, China) containing 10% fetal bovine serum (Shanghai XP Biomed Ltd., Shanghai, China), 10^5 U/L penicillin, 0.1 g/L streptomycin, and 0.5 μg/mL blasticidin. After 12 h, the culture medium in each well was replaced with 300 μL of pre-prepared fresh culture medium containing test compound (dissolved in DMSO with specific concentration) or blank DMSO. The final concentration of DMSO in the culture medium in the plate was 0.1%. Each group was tested at least twice in parallel. Ribavirin and 2CMA were used as the positive controls. After incubating the drug-added plate at 5% CO2/37 °C for 72 h, the medium was removed, and each well was washed with 300 μL of phosphate buffer solution (PBS, Shanghai XP Biomed Ltd., Shanghai, China). The cells in each well were then lysed with 50 μL of 1× lysis buffer (E2820, Promega, Madison, WI, USA). Subsequently, 50 μL of 1× luciferase assay substrate (E2820, Promega, Madison, WI, USA) was mixed with 20 μL of the harvested cell lysates.
The inhibitory rates under at least six different concentration gradients were imported into GraphPad Prism 7.0 software to calculate the anti-HCV EC50 values of the compounds using the nonlinear fitting method.
(Replicon systems follow genome replication, usually without infectious particles.)

Series [2] can be described thus: Cytotoxicity assay (CCK-8) on replicon cells. It counts as cell-based. To be noted: human, HCV 1b replicon cells (Huh-7.5.1); 50% cytotoxic concentration; CCK-8, HCV 1b replicon cells, 72 h. The procedure: as §1
The HCV 1b replicon cells were incubated and treated with test compounds or blank DMSO in a 48-well plate using the same materials and methods as described in the experimental procedure of anti-HCV assay. The final concentration of DMSO in each well was 0.1%. After 72 h of drug treatment, the culture medium in the well plate was removed, and cells in each well were washed with 300 μL of PBS. A total of 300 μL of pre-prepared fresh culture medium containing 30 μL CCK-8 reagent (Donjindo, Kumamoto, Japan) was added to each well, and the plate was incubated at 5% CO2/37 °C for 2 h. The OD (optical density) value of each well at 450 nm was measured using a multi-function microplate reader (SpectraMax M5, Molecular Devices, San Jose, CA, USA). The death ratio of each well was calculated using the following equation, in which ODcompound or ODblank represents the measured OD value of the compound group or the blank control (DMSO), respectively:death ratio = (1−ODcompound/ODblank) × 100%(2)
The cell death data under at least six different concentration gradients were imported into GraphPad Prism 7.0.0 software (GraphPad Software Inc., San Diego, CA, USA), and the CC50 (50% cytotoxic concentration) values were calculated using the nonlinear fitting method.

Setting [3] is: Hepatitis C virus, inhibitory rate at 10 μM, HCV 1b replicon cells, 72 h.
The mark [4] stands for this setting: Hepatitis C virus, inhibitory rate at 25 μM, HCV 1b replicon cells, 72 h.
The mark [5] stands for this setting: Hepatitis C virus, Huh-7.5.1, 50% effective concentration, HCV 1b replicon cells.
[6] abbreviates: 50% effective concentration, HCV 1b replicon cells.

As usually defined, the inhibition is the change of the read-out against control, counted positive when it falls. On to `O=c1[nH]c2ccccc2c(=O)n1O` [10a, 3-Hydroxyquinazoline-2,4(1H,3H)-dione], for which, in series [1] (Hepatitis C virus), the inhibition at 10 µM was -3% and the inhibition at 25 µM was determined as 36%.

Turning to `O=c1c2ccccc2n(CCCc2ccccc2)c(=O)n1O` [10b, 3-Hydroxy-1-(3-phenylpropyl)quinazoline-2,4(1H,3H)-dione], the inhibition at 10 µM in series [1] (setting [3]) amounted to 28.6%. Further, the inhibition at 25 µM in series [1] (setting [4]) was found to be 40.9%.

For orientation: EC50 means the concentration giving half of the maximal effect. Read a high EC50 as a need for much substance. By CC50 is commonly meant the concentration giving 50% cytotoxicity. Lower therefore signals greater toxicity to the cells. With `O=C(Cn1c(=O)n(O)c(=O)c2ccccc21)c1ccccc1` [10e, 3-Hydroxy-1-(2-oxo-2-phenylethyl)quinazoline-2,4(1H,3H)-dione], the response in series [1] (setting [5]) was half-maximal at 11.3 ± 3 µM (EC50). Besides, the inhibition at 10 µM in series [1] (setting [3]) stood at 46.1%. Further, the inhibition at 25 µM in series [1] (setting [4]) was determined as 68%. In series [2], this compound registered a CC50 at 72 h of 13.1 ± 1.7 µM.

Take `O=C(Cn1c(=O)n(O)c(=O)c2ccccc21)NCCc1ccccc1` [10f, 2-(3-Hydroxy-2,4-dioxo-3,4-dihydroquinazolin-1(2H)-yl)-N-phenethylacetamide]: the inhibition at 10 µM in series [1] (setting [3]) was 13.3%. For the same compound, the inhibition at 25 µM in series [1] (setting [4]) is no more than 50%.

Take `O=C(Cn1c(=O)n(O)c(=O)c2ccccc21)NCC1CC1` [10g, N-(Cyclopropylmethyl)-2-(3-hydroxy-2,4-dioxo-3,4-dihydroquinazolin-1(2H)-yl)acetamide]: the inhibition at 10 µM in series [1] (setting [3]) turned out to be 10.6%. In addition, the inhibition at 25 µM in series [1] (setting [4]) came to 15%. Further, in series [1], the “HCV inhibition at the tested concentrations” value is on record as “less than 30%”.

`O=C(Cn1c(=O)n(O)c(=O)c2ccccc21)NCc1ccccc1` [10h, N-Benzyl-2-(3-hydroxy-2,4-dioxo-3,4-dihydroquinazolin-1(2H)-yl)acetamide]: the inhibition at 10 µM in series [1] (setting [3]) came to 1.3%. In addition, the inhibition at 25 µM in series [1] (setting [4]) is no more than 50%.

As to `CCCCNC(=O)Cn1c(=O)n(O)c(=O)c2ccccc21` [10i, N-Butyl-2-(3-hydroxy-2,4-dioxo-3,4-dihydroquinazolin-1(2H)-yl)acetamide], the inhibition at 10 µM in series [1] (setting [3]) came out at 26.5%. Besides, the inhibition at 25 µM in series [1] (setting [4]) stood at 22.9%. The “HCV inhibition at the tested concentrations” value in series [1] is “less than 30%”.

Take `O=C(Cn1c(=O)n(O)c(=O)c2ccccc21)Nc1ccccc1` [10j, 2-(3-Hydroxy-2,4-dioxo-3,4-dihydroquinazolin-1(2H)-yl)-N-phenylacetamide]: in series [1] (setting [3]), the inhibition at 10 µM is 30.1%. Also, the inhibition at 25 µM in series [1] (setting [4]) was determined as 62.7%.

As for `O=C(Cn1c(=O)n(O)c(=O)c2ccccc21)NCc1c(Cl)cccc1Cl` [10k, N-(2,6-Dichlorobenzyl)-2-(3-hydroxy-2,4-dioxo-3,4-dihydroquinazolin-1(2H)-yl)acetamide], the inhibition at 10 µM in series [1] (setting [3]) turned out to be 43.7%. Further, the inhibition at 25 µM in series [1] (setting [4]) worked out at 54.7%.

Regarding `O=C(Cn1c(=O)n(O)c(=O)c2ccccc21)NCc1cccc(F)c1` [10l, N-(3-Fluorobenzyl)-2-(3-hydroxy-2,4-dioxo-3,4-dihydroquinazolin-1(2H)-yl)acetamide], in series [1] (setting [3]), the inhibition at 10 µM turned out to be 22.4%. For the same compound, the inhibition at 25 µM in series [1] (setting [4]) was found to be 45.5%.

In the case of `O=C(Cn1c(=O)n(O)c(=O)c2ccccc21)NCc1ccc(F)cc1` [10m, N-(4-Fluorobenzyl)-2-(3-hydroxy-2,4-dioxo-3,4-dihydroquinazolin-1(2H)-yl)acetamide], the inhibition at 10 µM in series [1] (setting [3]) was 12.7%. For the same compound, in series [1] (setting [4]), the inhibition at 25 µM worked out at 58.4%.

On to `N#Cc1ccc(NC(=O)Cn2c(=O)n(O)c(=O)c3ccccc32)cc1` [10n, N-(4-Cyanophenyl)-2-(3-hydroxy-2,4-dioxo-3,4-dihydroquinazolin-1(2H)-yl)acetamide], for which the EC50 is 6.4 ± 0.3 µM in series [1] (setting [6]) and less than 10 µM in series [1] (setting [5]). In addition, the inhibition at 10 µM in series [1] (setting [3]) amounted to 58%. Besides, the inhibition at 25 µM in series [1] (setting [4]) came to 66%. In series [2], this compound returned a CC50 at 72 h of 10.6 ± 0.3 µM.

For `COc1ccc(NC(=O)Cn2c(=O)n(O)c(=O)c3ccccc32)cc1` [10o, 2-(3-Hydroxy-2,4-dioxo-3,4-dihydroquinazolin-1(2H)-yl)-N-(4-methoxyphenyl)acetamide], the inhibition at 10 µM in series [1] (setting [3]) came to 16.9%. In series [1] (setting [4]), the inhibition at 25 µM came out at 67.5%.

Take `O=C(Cn1c(=O)n(O)c(=O)c2ccccc21)Nc1ccc(C(F)(F)F)cc1` [10p, 2-(3-Hydroxy-2,4-dioxo-3,4-dihydroquinazolin-1(2H)-yl)-N-(4-(trifluoromethyl)phenyl)acetamide]: the EC50 is 8.1 ± 0.1 µM in series [1] (setting [6]) and less than 10 µM in series [1] (setting [5]). Besides, the inhibition at 10 µM in series [1] (setting [3]) amounted to 41.4%. In series [1] (setting [4]), the inhibition at 25 µM stood at 64.9%. This compound also yielded a CC50 at 72 h in series [2] of 15.3 ± 0.7 µM.

`O=c1[nH]c2cc(Cc3ccccc3)ccc2c(=O)n1O` [18a, 7-Benzyl-3-hydroxyquinazoline-2,4(1H,3H)-dione]: the inhibition at 10 µM in series [1] (setting [3]) was found to be 28.6%. Further, the inhibition at 25 µM in series [1] (setting [4]) is 59.8%.

Consider `Cn1c(=O)n(O)c(=O)c2ccc(Cc3ccccc3)cc21` [18b, 7-Benzyl-3-hydroxy-1-methylquinazoline-2,4(1H,3H)-dione], for which the inhibition at 10 µM in series [1] (setting [3]) is 23%.

`Cn1c(=O)n(O)c(=O)c2ccc(Cc3cc(F)cc(F)c3)cc21` [18c, 7-(3,5-Difluorobenzyl)-3-hydroxy-1-methylquinazoline-2,4(1H,3H)-dione]: the inhibition at 10 µM in series [1] (setting [3]) stood at 39.5%.

`O=c1[nH]c2cc(-c3cc(F)cc(F)c3)ccc2c(=O)n1O` [21m, 7-(3,5-Difluorophenyl)-3-hydroxyquinazoline-2,4(1H,3H)-dione]: the inhibition at 10 µM in series [1] (setting [3]) is 48.2%.

Consider `O=c1[nH]c2cc(-c3cc(F)c(F)c(F)c3)ccc2c(=O)n1O` [21q, 3-Hydroxy-7-(3,4,5-trifluorophenyl)quinazoline-2,4(1H,3H)-dione], for which the inhibition at 10 µM in series [1] (setting [3]) was 26.8%. Besides, in series [1] (setting [4]), the inhibition at 25 µM turned out to be 5.4%.

As to `O=c1[nH]c2c(-c3ccc(F)cc3)cccc2c(=O)n1O` [21v, 8-(4-Fluorophenyl)-3-hydroxyquinazoline-2,4(1H,3H)-dione], the inhibition at 10 µM in series [1] (setting [3]) turned out to be 23.5%. In addition, in series [1] (setting [4]), the inhibition at 25 µM is 44.5%.

`COc1ccc(-c2cccc3c(=O)n(O)c(=O)[nH]c23)cc1` [21w, 3-Hydroxy-8-(4-methoxyphenyl)quinazoline-2,4(1H,3H)-dione]: the inhibition at 10 µM in series [1] (setting [3]) came to 11.5%. For the same compound, the inhibition at 25 µM in series [1] (setting [4]) is 36.4%.

For `O=c1[nH]c2c(-c3ccc(C(F)(F)F)cc3)cccc2c(=O)n1O` [21x, 3-Hydroxy-8-(4-(trifluoromethyl)phenyl)quinazoline-2,4(1H,3H)-dione], the inhibition at 10 µM in series [1] (setting [3]) turned out to be 16.4%. For the same compound, the inhibition at 25 µM in series [1] (setting [4]) was 47.5%.

On to `CCCn1c(=O)n(O)c(=O)c2cc(-c3ccccc3)ccc21` [23f, 3-Hydroxy-6-phenyl-1-propylquinazoline-2,4(1H,3H)-dione], for which the inhibition at 10 µM in series [1] (setting [3]) turned out to be 26.7%. For the same compound, the inhibition at 25 µM in series [1] (setting [4]) stood at 28%.

With `CCCn1c(=O)n(O)c(=O)c2ccc(-c3ccccc3)cc21` [23g, 3-Hydroxy-7-phenyl-1-propylquinazoline-2,4(1H,3H)-dione], the inhibition at 10 µM in series [1] (setting [3]) was -2.2%. Besides, the inhibition at 25 µM in series [1] (setting [4]) was determined as 67.4%.

For the compound `O=c1c2cc(-c3ccccc3)ccc2n(Cc2ccccc2)c(=O)n1O` [23h, 1-Benzyl-3-hydroxy-6-phenylquinazoline-2,4(1H,3H)-dione], the inhibition at 10 µM in series [1] (setting [3]) came out at 7.8%. For the same compound, in series [1] (setting [4]), the inhibition at 25 µM amounted to 2%.

On to `O=c1c2ccc(-c3ccccc3)cc2n(Cc2ccccc2)c(=O)n1O` [23i, 1-Benzyl-3-hydroxy-7-phenylquinazoline-2,4(1H,3H)-dione], for which the inhibition at 10 µM in series [1] (setting [3]) was -6.5%. The inhibition at 25 µM in series [1] (setting [4]) was found to be 4.8%.
